Results: PubChem BioAssay (NCI)
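Dose response: 5 concentrations. Exposure: 48 h. Format: 96-well plates. Endpoint: linear interpolation; highest concentration if not reached. The concentration for 50% growth inhibition is given as GI50. TGI is the concentration that stops growth completely.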

Key:
Assay in all cases: NCI-60 cell line screen, 48 h
CCRF-CEM leukemia = test system: CCRF-CEM leukemia
COLO 205 colon = test system: COLO 205 colon
HCC-2998 colon = test system: HCC-2998 colon
OVCAR-8 ovarian = test system: OVCAR-8 ovarian
SK-MEL-5 melanoma = test system: SK-MEL-5 melanoma
SK-OV-3 ovarian = test system: SK-OV-3 ovarian
SN12C renal = test system: SN12C renal
SNB-19 CNS = test system: SNB-19 CNS
SW-620 colon = test system: SW-620 colon
HOP-92 NSCLC = test system: HOP-92 NSCLC

SMILES | GI50 (CCRF-CEM leukemia) [µM] | TGI (CCRF-CEM leukemia) [µM] | GI50 (COLO 205 colon) [µM] | TGI (COLO 205 colon) [µM] | GI50 (HCC-2998 colon) [µM] | TGI (HCC-2998 colon) [µM] | GI50 (OVCAR-8 ovarian) [µM] | TGI (OVCAR-8 ovarian) [µM] | GI50 (SK-MEL-5 melanoma) [µM] | TGI (SK-MEL-5 melanoma) [µM] | GI50 (SK-OV-3 ovarian) [µM] | TGI (SK-OV-3 ovarian) [µM] | GI50 (SN12C renal) [µM] | TGI (SN12C renal) [µM] | GI50 (SNB-19 CNS) [µM] | TGI (SNB-19 CNS) [µM] | TGI (SW-620 colon) [µM] | TGI (HOP-92 NSCLC) [µM] | GI50 (HOP-92 NSCLC) [µM] | GI50 (SW-620 colon) [µM]
C/C(=N\Nc1cc(C)c2ccccc2n1)c1ccccn1 | < 0.0269 | 0.571 | < 0.0188 | 1.98 | < 0.0445 | 2.15 | 0.0535 | 1.35 | 0.13 | 1.28 | 0.119 | 8.38 | 0.0762 | 7.57 | 0.159 | 13.6 | 1.98 |  |  | 
COc1ccc(/C(=N\NC(=O)C(=O)NN)C(c2ccc(OC)cc2)C2(O)C(=O)Nc3ccccc32)cc1 (configuration not stated) |  |  |  | > 100 |  |  |  | > 100 |  | > 100 |  | > 100 |  | > 100 |  | > 100 | > 100 | > 100 |  | 
CC(=O)[CH-]C(=O)c1ccccc1.CC(=O)[CH-]C(=O)c1ccccc1.CC(C)CCCC(C)[C@H]1CCC2[C@@H]3CC=C4C[C@@H]([O-])CC[C@]4(C)C3CC[C@@]21C.CC(C)CCCC(C)[C@H]1CCC2[C@@H]3CC=C4C[C@@H]([O-])CC[C@]4(C)C3CC[C@@]21C.[Ti+4] (some centres not stated) | > 100 | > 100 | > 100 | > 100 | > 100 | > 100 | > 100 | > 100 | > 100 | > 100 | > 100 | > 100 | > 100 | > 100 |  |  | > 100 | > 100 | > 100 | > 100
Cn1nc(-c2ccccc2)c(C(=O)/C=C/c2ccc(Cl)cc2)c(N2CCCCC2)c1=O |  | 5.56 |  | 4.35 |  |  |  | 16.5 |  | 3.75 |  | 9.81 |  | 20.5 |  | 4.72 | 16.6 | 5.14 |  | 
O=C1c2ccccc2-c2oc(=O)c3ccccc3c21 |  | > 100 |  | > 100 |  |  |  | > 100 |  | > 100 |  | > 100 |  | > 100 |  | > 100 | > 100 | > 100 |  | 
CC1=C(C(=O)Nc2ccc(Cl)c(Cl)c2)C(c2cccc(Cl)c2)NC(=O)N1 (configuration not stated) |  |  | 9.42 | 21.2 |  |  | 14.8 | > 37.7 | 8.93 | 17.4 | 10.6 | 20.7 | 8.53 | 16.8 | 9.52 | 21 | > 29.4 | > 28.7 | 18.3 | 12.6
O=C(Nc1ccc(Cl)cc1Cl)C1C(=O)C(=O)N(c2ccc(Cl)cc2Cl)C1=O (configuration not stated) |  |  |  |  |  | > 100 |  | > 100 |  | > 100 |  | > 100 |  | > 100 |  | > 100 | > 100 |  |  | 
O=C(O)c1ccc(Oc2nccc(-c3c(-c4ccc(F)cc4)ncn3C3CCNCC3)n2)cc1 |  |  | > 25 | > 25 | > 25 | > 25 | > 25 | > 25 | > 25 | > 25 | > 25 | > 25 | > 25 | > 25 | > 25 | > 25 | > 25 |  |  | > 25
CC(C)(C)CC(C)(C)c1cc2c(O)c(c1)Cc1cc(C(C)(C)CC(C)(C)C)cc(c1O)Cc1cc(C(C)(C)CC(C)(C)C)cc(c1O)Cc1cc(C(C)(C)CC(C)(C)C)cc(c1O)Cc1cc(C(C)(C)CC(C)(C)C)cc(c1O)C2 |  | > 100 |  | > 100 |  | > 100 |  | > 100 |  | > 100 |  |  |  | > 100 |  | > 100 | > 100 | > 100 |  | 
CC(=C/C=C/C=C(C)\C=C\C=C(\C)C(=O)O)/C=C/C=C(/C)C(=O)O |  | > 100 |  | > 100 |  |  |  | > 100 |  | > 100 |  | > 100 |  | > 100 |  |  | > 100 | > 100 |  | 
Cc1ccc(NC2=C(Cl)C(=O)N(Cc3ccc(Cl)cc3)C2=O)cc1O | 4.64 | 60 | 10.7 | 41 |  |  | 7.1 | 38.6 | 12.6 | 28 | 10.9 | 32.3 | 13.3 | 30.5 | 10.8 | 39 | 66.6 |  |  | 7.76
Cc1cc(-c2nc3sccn3c2/C=N/N=C(N)N)c(C)s1 | 16.6 | 48 |  |  |  |  | 29.4 | 57 | 14.6 | 30 | 17.5 | 32.3 | 15.7 | 30.9 | 16.2 | 32.8 | 54.5 |  |  | 21.8
O=C(O)Cc1cc(=O)[nH]c2c1/C(=N/O)CCC2 |  | > 100 |  |  |  | > 100 |  | > 100 |  | > 100 |  | > 100 |  | > 100 |  | > 100 | > 100 | > 100 |  | 
NC1CCC(Nc2nc(NCc3ccc(-c4ccccc4O)nc3)c3ncn(C4CCCC4)c3n2)CC1 (configuration not stated) | < 0.01 | 1.22 | 0.012 | 0.0278 | 0.0229 | 0.515 |  |  | 0.0313 | 1.17 | 0.036 | 0.431 | 0.0149 | 1.38 | < 0.0147 | 1.32 | 1.23 | 0.077 | 0.02 | < 0.01
C[C@]12CCC(=O)C(O)=C1CC[C@@H]1C2CC[C@]2(C)NC(=O)CCC12 (some centres not stated) |  | > 100 |  | > 100 |  |  |  | > 100 |  | > 100 |  | > 100 |  | > 100 |  | > 100 | > 100 | > 100 |  | 
COC(=O)C1=C(O)c2cc(-c3ccccc3)c(-c3ccccc3)c(C#N)c2NC(=O)C1 |  | > 100 |  | > 100 |  | > 100 |  | > 100 |  |  |  |  |  | > 100 |  | > 100 |  |  |  | 
O=C1O[C@H](c2ccccc2)[C@@H]2CC3(CCN12)OCCO3 |  | > 100 |  | > 100 |  |  |  | > 100 |  | > 100 |  |  |  | > 100 |  | > 100 | > 100 | > 100 |  | 
